# Measured values from patent publication US4002615A, “Terpenoid compounds of substituted hydroxyalkyl-pyridines having juvenile hormone activity” (A/S Cheminova, priority 1974, dated 1977).
# Tests used:
# Assay type in all cases: in vivo
# [1] = system: Culex pipiens L.; test: Culex test (mature larvae, loss of 50% of test animals); settings: concentration producing loss of 50% of test animals, mixtures of isomers, read-out: IC-50 eclos.
# Description: (§1) The biological tests are examplified by tests on Tenebrio molitor L, Galleria mellonella L. and Culex pipiens L.
# The compounds are tested on mature larvae. The concentration (IC-50 eclos.) is given in ppm.
# [2] = system: Tenebrio molitor L; test: Tenebrio test (topical application to pupae, inhibition of adult characters); settings: topical in acetone to abdomen of 0.5 to 2 hours old pupae; 27° C, 70% RH; mixtures of isomers
# Description: as §1
# The material in question is applied topically to the abdomen of 0.5 to 2 hours old pupae of the said species, as a solution in acetone. The pupae are held at 27° C and 70% RH, ecdysis occuring 5 to 7 days later. The degree of inhibition of adult characters is referred to an arbitrary scale, where a morphologically perfect adult is given the character 0%, and a perfect second pupae 100%.
# [3] = system: Galleria mellonella L.; test: Galleria test (eggs on impregnated filter paper, prevention of eclosion); settings: amount preventing eclosion of 50% of the eggs, mixtures of isomers
# Description: as §1
# The test is performed on eggs deposited on impregnated filter paper by the mother moth. The data given in table 2, are the amount necessary for preventing eclosion of 50% of the eggs. The amount (IC-50 eclos.) is given in mg./65 cm^2.
smiles,measurement,setting,value
"CC(C)=CCCC(C)=CCOCc1ccccn1 [Compound 1, 3,7-dimethyl-2,6-octadien-1-yl-(2-pyridyl)methylether]",LC50,[1],5 µg/mL
"CC(C)=CCCC(C)=CCOCc1cccc(C)n1 [Compound 8, 3,7-dimethyl-2,6-octadien-1-yl-(6-methyl-2-pyridyl)methylether]",LC50,[1],10 µg/mL
same,ID-50 morph.,[2],4 μg/pupa
same,IC-50 eclos.,[3],> 10 mg/65 cm^2
"CC(C)=CCCC(C)=CCOCc1ccncc1 [Compound 3, 3,7-dimethyl-2,6-octadien-1-yl-(4-pyridyl)methylether]",LC50,[1],> 10 µg/mL
"CC(=CCOCc1ccccn1)CCC1OC1(C)C (stereo not shown) [Compound 4, 6,7-epoxy-3,7-dimethyl-2-octen-1-yl-(2-pyridyl)methylether]",LC50,[1],9 µg/mL
"CCc1ccc(COCC=C(C)CCC2OC2(C)C)nc1 (stereo not shown) [Compound 6, 6,7-epoxy-3,7-dimethyl-2-octen-1-yl-(5-ethyl-2-pyridyl)methylether]",LC50,[1],0.005 µg/mL
